Molecules are shown by their SMILES. Read-outs that look alike come from different tables or passages of the source.

One assay deals with PCGs of rat cerebellum. Briefly: Proliferation of granule cell precursors (PCGs) of rat cerebellum induced by SAG, 3H-thymidine incorporation. The assay is classed as cell-based. The settings on record: for IC50: proliferation induced by SAG (0.01 μM), 3H-thymidine incorporation, read-out: IC50 ± SEM, PCGs of rat cerebellum (3). As to the method:
The granule cell precursors (GCP) are isolated from cerebellums of rats (IFFA-CREDO, France), 8 days after birth (P8). The cerebellums are taken, cut into small pieces, placed in Krebs-Ringer buffer (120 mM NaCl, 5 mM KCl, 1 mM KH2PO4, 25 mM NaHCO3, 15 mM glucose, 0.04 mM phenol red) and incubated for 15 minutes at room temperature in a dissociation buffer composed of Krebs-Ringer with addition of 250 mg/ml of trypsin (Sigma, France). Enzymatic dissociation is stopped by adding an equal volume of Krebs-Ringer buffer containing 250 mg/ml of a trypsin inhibitor and 80 mg/ml of DNase (Sigma, France). The tissue is centrifuged at 100 g for 10 seconds and the pellet obtained is resuspended and triturated using Pasteur pipettes of decreasing diameter to obtain a suspension of isolated cells. This suspension is centrifuged at 200 g for 5 minutes and the pellet obtained is resuspended in Neurobasal medium supplemented with 1 mM of pyruvate, 2 mM L-glutamine, penicillin/streptomycin and 1% of supplement N2, 60 mg/ml N-acetyl cysteine and […] of bovine serum albumin (BSA, Sigma, France).
The cerebellar GCPs obtained are transferred to 96-well plates treated beforehand with poly-D-lysine at a density of 2.10^5 cells/well. SAG in the presence or absence of the other test compounds is added immediately. 12 hours before the end of culture, tritiated thymidine (^3H-thymidine) is added. The cells are aspirated and recovered on a glass fiber filter (GF/C) using an automated cell collector (Brandel, USA). The amount of radioactivity incorporated by the cells was quantified in the presence of a scintillating agent in a liquid scintillation counter (Wallac, USA).
The cerebellar PCGs proliferate in response to activation of the Shh signalling pathway, a response that can be inhibited by the Smo antagonists (Rohatgi et al., 2009, Proc. Natl. Acad. Sci. USA 106: 3196-201). We therefore analyzed the capacity of compound (7d) for inhibiting the proliferation of the PCGs of rat cerebellum in primary culture by measuring the incorporation of tritiated thymidine, a marker of DNA newly synthesized during the proliferation process.
For orientation: Incorporation of labelled thymidine or its analogues reports DNA synthesis.

The next assay addresses T1, human Smo receptor (Homo sapiens, UniProt Q99835).
T1 construct: expressed in transfected cells
Nature of the assay: Competition with bodipy-cyclopamine (BC) binding in HEK-hSmo cells. As for the experimental part:
Cells of the HEK293 line stably transfected with the human Smo receptor are used. The experiment was conducted according to the protocol described in Roudaut et al., Mol. Pharmacol. 79: 453-460, 2011.
At the end of the incubation, the cells are fixed and stained with DAPI, a fluorescent molecule with high affinity for DNA which makes it possible to visualize the nuclei in blue in fluorescence microscopy.

The subject of another assay is C3H10T1/2 cells. Nature of the assay: Differentiation of C3H10T1/2 cells induced by SAG, alkaline phosphatase (AP) activity. The settings on record: Mus musculus, C3H 10T1/2. The assay is classed as cell-based, mouse. As to the method:
The test compounds of formula (I) were dissolved in dimethylsulfoxide up to a concentration of 10 mM, then stored at a temperature of −20° C. until used.
The line of C3H10T1/2 pluripotent fibroblast cells (ATCC) was cultured in the conditions recommended by the ATCC. These cells were activated using 0.1 μM of SAG according to the methods described by Chen et al., Proc. Natl. Acad. Sci. USA, 2002, 99, 14071 and Frank-Kamenetsky et al., J. Biol., 2002, 1, 10.
Activation by SAG causes differentiation of the cell line and allows it to express alkaline phosphatase (AP). It was thus possible to measure the activity of the Hedgehog protein signalling pathway via measurement of the alkaline phosphatase (AP) activity.
The C3H10T1/2 cells were seeded on 96-well plates at a density of 5.10^3 cells per well, 24 hours before adding the test compounds at a concentration varying from 1 nM to 30 μM and in the presence of 0.1 μM of SAG, using DMEM (Dulbecco's Modified Eagle's Medium) with 10% fetal calf serum as culture medium. The tests were carried out in quadruplicate. The plates were then incubated for 5 to 6 days at a temperature of 37° C. under 5% CO2 atmosphere. The cells were then washed in cold phosphate buffer (“Phosphate Buffer Serum”: PBS), then lysed by sonication at 4° C. in 50 μL of a solution containing 0.9% of NaCl and 0.2% of Triton X-100.
Measurement of the alkaline phosphatase (AP) activity in the lysates thus obtained was then performed according to the method described by Pepinsky et al. (J. Biol. Chem., 1998, 273, 14037). After adding 100 μL of reaction buffer (200 mM Tris-HCl; pH 10.5; 0.4 M of 2-amino-2-methylpropanol and 8 mM of MgCl2) and 50 μL of substrate (4 mM of p-nitrophenyl disodium phosphate), the lysates were incubated at 37° C. for 30-60 min, then the optical density was read at a wavelength of 415 nm.

T1 sequence (Q99835 28-787): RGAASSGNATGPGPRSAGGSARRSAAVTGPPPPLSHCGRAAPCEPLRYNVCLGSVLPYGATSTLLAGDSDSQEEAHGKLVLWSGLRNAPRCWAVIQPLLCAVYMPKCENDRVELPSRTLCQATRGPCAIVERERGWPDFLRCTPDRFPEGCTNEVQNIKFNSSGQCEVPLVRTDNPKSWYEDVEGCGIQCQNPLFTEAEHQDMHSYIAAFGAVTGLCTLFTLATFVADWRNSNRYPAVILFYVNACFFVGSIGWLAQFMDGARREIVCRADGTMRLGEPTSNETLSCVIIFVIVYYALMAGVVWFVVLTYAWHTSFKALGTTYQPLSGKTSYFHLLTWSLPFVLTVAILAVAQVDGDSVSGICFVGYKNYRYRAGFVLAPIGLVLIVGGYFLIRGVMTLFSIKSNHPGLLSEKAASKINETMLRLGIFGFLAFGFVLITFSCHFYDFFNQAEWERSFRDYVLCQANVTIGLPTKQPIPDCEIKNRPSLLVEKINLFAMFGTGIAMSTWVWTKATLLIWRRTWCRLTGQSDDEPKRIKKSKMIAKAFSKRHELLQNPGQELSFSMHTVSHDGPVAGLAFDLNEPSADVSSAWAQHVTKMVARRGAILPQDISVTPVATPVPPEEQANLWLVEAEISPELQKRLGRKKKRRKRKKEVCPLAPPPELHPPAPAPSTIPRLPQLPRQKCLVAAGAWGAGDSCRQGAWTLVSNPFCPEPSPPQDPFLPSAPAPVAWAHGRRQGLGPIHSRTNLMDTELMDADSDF

For `COc1cc(C(=O)NC(=N)Nc2ccc(C)c(NC(=O)c3ccc(CCc4ccccc4)cc3)c2)cc(OC)c1OC.Cl` [Compound 7d, 3,4,5-trimethoxy-N—(N-(4-methyl-3-(4-phenethylbenzamido)phenyl)carbamimidoyl)benzamide hydrochloride], the IC50 is 0.45 nM in the assay with PCGs of rat cerebellum (Rattus norvegicus); 0.4 ± 0.1 nM in the assay with PCGs of rat cerebellum (hydrochloride); 8 ± 1 nM on human Smo receptor (bodipy-cyclopamine (5 nM), HEK-hSmo cells, read-out: IC50 ± SEM, BC binding (4)); 6 ± 1 nM in the assay with C3H10T1/2 cells (AP activity, differentiation induced by SAG (0.1 μM), read-out: IC50 ± SEM, C3H10T1/2 cells (2)); 6 ± 1 nM in the assay with C3H10T1/2 cells (SAG 0.1 μM, Mean ± SEM, n ≧ 3, read-out: IC50, differentiation of C3H10T1/2 cells); 6 ± 1 nM in the assay with C3H10T1/2 cells (after induction by SAG at 0.1 μM, read-out: IC50, inhibition of alkaline phosphatase (AP) activity, differentiation of C3H10T1/2 cells). In addition, the “Type of antagonism on proliferation of PCGs” value in the assay with PCGs of rat cerebellum (induced by SAG (0.01 μM)) is reported as “complete antagonist”. At human Smo receptor (BC 5 nM, 2 hours), the “Block of the binding of BC to HEK-hSmo cells, in words” value was “very similar and high”.

The values are drawn from patent US8981149B2, “Compounds modulating the hedgehog protein signaling pathway, marked forms thereof, and applications” (Centre National De La Recherche Scientifique, priority 2011, dated 2015).
